Test results as given in ChEMBL document CHEMBL4725273, “Structure-activity relationship study of cytotoxic neolignan derivatives using multivariate analysis and computation-aided drug design” (Bioorg Med Chem Lett, 2020).

How the values were obtained:
[1] = Selectivity index, ratio for IC50 for human T75 cells to IC50 for human A2058 cells
[2] = Cytotoxicity against human T75 cells; type: cell-based
B16-F10 = assay: Cytotoxicity against mouse B16-F10 cells; type: functional, cell-based
A2058 = assay: Cytotoxicity against human A2058 cells; type: functional, cell-based

| Structure (SMILES) | Ratio IC50 [1] | IC50 [2] [µM] | IC50 (B16-F10) [µM] | IC50 (A2058) [µM] |
| --- | --- | --- | --- | --- |
| CCCOc1c(OC)cc(CCC)cc1Oc1ccc(CCC)cc1OC | >1.9 | > 100 | 79 | 52.2 |
| CCCc1ccc(Oc2cc(CCC)cc(OC)c2OC)c(OC)c1 |  | > 100 | > 100 | > 100 |
| C=CCc1ccc(Oc2cc(CC=C)cc(OC)c2Oc2ccccc2)c(OC)c1 |  | > 100 | > 100 | > 100 |
| C=CCc1ccc(Oc2cc(C(=O)C=C)cc(OC)c2OC)c(OC)c1 |  | > 100 | > 100 | > 100 |
| C=CCc1ccc(Oc2cc(C(=O)C=C)cc(OC)c2O)c(OC)c1 | >1.2 | > 100 | 82.2 | 85.3 |
| C=CCc1ccc(Oc2cc(C(O)C=C)cc(OC)c2O)c(OC)c1 (stereo not given) |  | > 100 | > 100 | > 100 |
| COc1cc(C=O)ccc1Oc1cc(C=O)cc(OC)c1OC=O | >1.6 | > 100 | 80.2 | 61.4 |
| COc1cc(CC(C)O)ccc1Oc1cc(CC(C)O)cc(OC)c1OCC(C)O (stereo not given) |  | > 100 | > 100 | > 100 |
| C=CCc1ccc(Oc2cc(C(O)C=C)cc(OC)c2OC)c(OC)c1 (stereo not given) |  | > 100 | 90.3 | > 100 |
| COc1cc(CC(C)=O)ccc1Oc1cc(CC(C)=O)cc(OC)c1OCC(C)=O |  | > 100 | > 100 | > 100 |
| COc1cc(CCCO)ccc1Oc1cc(CCCO)cc(OC)c1OCCCO |  | > 100 | > 100 | > 100 |
| CCCc1ccc(Oc2cc(CCC)cc(OC)c2Oc2ccccc2)c(OC)c1 |  | > 100 | > 100 | > 100 |
| CCC(O)Oc1c(OC)cc(C(O)CC)cc1Oc1ccc(C(O)CC)cc1OC (stereo not given) |  | > 100 | > 100 | > 100 |
| CCCS(=O)(=O)Nc1ccc(F)c(C(=O)c2c[nH]c3ncc(-c4ccc(Cl)cc4)cc23)c1F [VEMURAFENIB] | >11.5 | > 100 |  | 8.7 |
